Results as given in the supplement of paper PMC10307832.

How the values were obtained:
Test in all cases: relative viability (nuclei count vs DMSO), 5 days (fraction); higher = more cells survive
VX-11e + Trametinib = compound: CC1=CN=C(N=C1C2=CNC(=C2)C(=O)N[C@H](CO)C3=CC(=CC=C3)Cl)NC4=C(C=C(C=C4)F)Cl [VX-11e] + CC(=O)Nc1cccc(-n2c(=O)n(C3CC3)c(=O)c3c(Nc4ccc(I)cc4F)n(C)c(=O)c(C)c32)c1 [Trametinib] (partner 0.02 µM)
How it was run: (§1)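 Five library-drug doses in √10 steps were combined with a fixed anchor-drug dose, or a single drug was given alone, by pin tool to lung cancer cell lines in 1536-well plates the day after seeding. Nuclei were stained and counted after 5 days. Relative viability is the nuclei count in treated wells over that in vehicle wells, taken as the median of duplicate plates.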

VX-11e + Tozasertib = compound: CC1=CN=C(N=C1C2=CNC(=C2)C(=O)N[C@H](CO)C3=CC(=CC=C3)Cl)NC4=C(C=C(C=C4)F)Cl [VX-11e] + Cc1cc(Nc2cc(N3CCN(C)CC3)nc(Sc3ccc(NC(=O)C4CC4)cc3)n2)n[nH]1 [Tozasertib] (partner 0.1 µM)
How it was run: as §1

VX-11e + AZD7762 = compound: CC1=CN=C(N=C1C2=CNC(=C2)C(=O)N[C@H](CO)C3=CC(=CC=C3)Cl)NC4=C(C=C(C=C4)F)Cl [VX-11e] + NC(=O)Nc1cc(-c2cccc(F)c2)sc1C(=O)N[C@H]1CCCNC1 [AZD7762] (partner 0.2 µM)
How it was run: as §1

VX-11e = compound: CC1=CN=C(N=C1C2=CNC(=C2)C(=O)N[C@H](CO)C3=CC(=CC=C3)Cl)NC4=C(C=C(C=C4)F)Cl [VX-11e]
How it was run: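 Only plates meeting two conditions passed: control CV below 25% and at least one doubling. Lung cancer cell lines, kept overnight at 37 °C in 1536-well plates, were pinned with five library-drug doses (not always all listed) √10 apart on vehicle-anchored plates and grown 5 days without medium change. A one-step fix, permeabilisation and Hoechst stain preceded 4× imaging and MetaXpress nuclear counting. Viability equals treated-well nuclei divided by vehicle-well nuclei, as the median over plates.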

Cell Line	relative viability (VX-11e + Trametinib; first compound 0.04 µM)	relative viability (VX-11e + Trametinib; first compound 0.1265 µM)	relative viability (VX-11e + Trametinib; first compound 0.4 µM)	relative viability (VX-11e + Trametinib; first compound 1.265 µM)	relative viability (VX-11e + Trametinib; first compound 4 µM)	relative viability (VX-11e + Tozasertib; first compound 0.04 µM)	relative viability (VX-11e + Tozasertib; first compound 0.1265 µM)	relative viability (VX-11e + Tozasertib; first compound 0.4 µM)	relative viability (VX-11e + Tozasertib; first compound 1.265 µM)	relative viability (VX-11e + Tozasertib; first compound 4 µM)	relative viability (VX-11e + AZD7762; first compound 0.04 µM)	relative viability (VX-11e + AZD7762; first compound 0.1265 µM)	relative viability (VX-11e + AZD7762; first compound 0.4 µM)	relative viability (VX-11e + AZD7762; first compound 1.265 µM)	relative viability (VX-11e + AZD7762; first compound 4 µM)	relative viability (VX-11e; 0.04 µM)	relative viability (VX-11e; 0.1265 µM)	relative viability (VX-11e; 0.4 µM)	relative viability (VX-11e; 1.265 µM)	relative viability (VX-11e; 4 µM)
EMC-BAC-2	0.937	0.791	0.518	0.538	0.402	0.313	0.272	0.373	0.382	0.353	1.2	0.96	1.13	1	0.855	0.903	0.875	1.43	0.998	0.663
NCI-H3122	0.236	0.239	0.177	0.29	0.148	0.452	0.413	–	0.23	0.173	1.13	1.13	0.353	0.933	0.577	1.02	0.959	0.696	0.888	0.564
EPLC-272H	0.268	0.299	–	0.225	0.173	0.224	0.262	–	0.193	0.205	0.147	0.21	–	0.201	0.285	0.787	0.759	0.556	0.706	0.419
LU99A	0.504	0.316	0.421	0.272	0.258	0.25	0.246	0.269	0.244	0.22	0.244	0.37	0.142	0.18	0.195	1.03	0.933	0.802	0.77	0.394
LXF-289	0.729	0.652	–	0.626	0.498	0.223	0.177	0.222	0.189	0.141	1.15	1.12	–	0.805	0.686	1.06	0.977	0.773	0.93	0.672
NCI-H1944	0.468	0.441	0.343	0.347	0.282	0.224	0.227	–	0.231	0.171	0.513	0.522	0.255	0.449	0.37	0.874	0.869	0.525	0.78	0.558
NCI-H647	0.51	0.358	0.211	0.163	0.217	0.254	0.301	0.246	0.205	0.0828	0.347	0.573	–	0.426	0.215	0.814	0.884	0.494	0.652	0.426
201T	0.737	0.72	0.705	0.706	0.689	0.99	0.923	0.941	0.909	0.774	0.592	0.586	0.562	0.626	0.74	0.971	0.985	0.883	0.691	0.951
NCI-H358	0.0982	0.135	0.0751	0.121	0.112	0.113	0.0919	0.102	0.096	0.0812	0.594	0.499	–	0.445	0.228	1.01	0.835	0.595	0.805	0.266
NCI-H441	0.448	0.485	–	0.278	0.325	0.753	0.55	–	0.585	0.453	1.23	1.12	–	1.17	1.05	1.19	1.01	–	1.04	0.676
NCI-H1734	0.619	0.675	0.536	0.557	0.375	0.289	0.209	0.234	0.23	0.192	0.525	0.532	0.307	0.334	0.296	0.835	0.858	0.635	0.632	0.411
NCI-H23	0.276	0.339	0.287	0.223	0.219	0.321	0.322	–	0.216	0.168	0.208	0.231	0.167	0.176	0.119	0.82	0.854	0.198	0.411	0.271
NCI-H2405	0.716	0.582	0.271	0.649	0.283	0.804	0.757	0.768	0.779	0.256	0.835	0.729	0.625	0.671	0.412	1.01	0.934	0.901	0.943	0.462
RERF-LC-KJ	0.888	0.766	0.897	0.921	0.667	0.529	0.452	0.564	0.457	0.29	0.572	0.876	0.498	0.903	0.839	1.05	0.895	0.99	0.989	0.789
PC-14	0.734	0.697	0.624	0.413	0.216	0.66	0.469	0.395	0.331	0.278	0.341	0.339	0.274	0.278	0.256	1.05	0.954	0.659	0.799	0.491
EKVX	0.385	0.353	0.293	0.395	0.207	0.385	0.398	0.342	0.257	0.163	0.634	0.74	0.764	0.723	0.448	0.906	1.03	0.953	0.898	0.489

Cell Line	relative viability (VX-11e + Trametinib; first compound 0.04 µM)	relative viability (VX-11e + Trametinib; first compound 0.1265 µM)	relative viability (VX-11e + Trametinib; first compound 0.4 µM)	relative viability (VX-11e + Trametinib; first compound 1.265 µM)	relative viability (VX-11e + Trametinib; first compound 4 µM)	relative viability (VX-11e + Tozasertib; first compound 0.04 µM)	relative viability (VX-11e + Tozasertib; first compound 0.1265 µM)	relative viability (VX-11e + Tozasertib; first compound 0.4 µM)	relative viability (VX-11e + Tozasertib; first compound 1.265 µM)	relative viability (VX-11e + Tozasertib; first compound 4 µM)	relative viability (VX-11e + AZD7762; first compound 0.04 µM)	relative viability (VX-11e + AZD7762; first compound 0.1265 µM)	relative viability (VX-11e + AZD7762; first compound 0.4 µM)	relative viability (VX-11e + AZD7762; first compound 1.265 µM)	relative viability (VX-11e + AZD7762; first compound 4 µM)	relative viability (VX-11e; 0.04 µM)	relative viability (VX-11e; 0.1265 µM)	relative viability (VX-11e; 0.4 µM)	relative viability (VX-11e; 1.265 µM)	relative viability (VX-11e; 4 µM)
PC-3 [JPC-3]	0.671	0.653	0.59	0.572	0.527	0.892	0.863	0.829	0.926	0.729	0.697	0.653	0.685	0.701	0.711	0.997	1.02	0.998	0.981	0.832
NCI-H1355	0.406	0.411	0.372	0.33	0.221	0.516	0.544	0.457	0.346	0.282	0.757	0.695	0.45	0.615	0.368	0.766	0.842	0.771	0.756	0.437
ChaGo-K-1	0.928	0.909	0.842	0.881	0.869	0.219	0.233	0.234	0.188	0.186	0.889	0.801	0.796	0.896	0.767	0.926	0.903	0.925	1.03	0.905
NCI-H1395	1	0.942	–	0.895	0.617	0.75	0.688	0.689	0.781	0.547	0.377	0.394	–	0.385	0.365	0.781	0.846	0.586	0.717	0.611
NCI-H1648	–	0.406	0.5	0.376	0.291	0.515	0.378	0.566	0.292	0.318	–	0.639	0.641	0.703	0.733	0.978	0.958	1.54	0.694	0.624
LCLC-97TM1	0.21	0.179	0.17	–	0.0986	0.21	0.223	0.2	0.166	0.179	0.259	0.172	0.23	0.175	0.14	0.911	0.889	0.797	0.499	0.541
NCI-H596	0.754	0.751	0.712	0.645	0.556	0.912	0.815	0.845	0.758	0.446	1.03	0.895	1.01	0.748	0.778	0.916	0.901	0.943	0.525	0.578
NCI-H2126	0.543	0.539	0.575	0.523	0.473	0.828	0.78	–	0.666	0.6	0.844	0.972	0.795	1.01	0.861	0.682	0.935	0.701	0.894	0.808
BEN	1.08	0.845	1.06	0.798	1.1	–	0.477	0.642	0.456	0.417	0.481	0.635	0.823	0.634	0.567	–	0.903	1.03	0.662	0.782
LCLC-103H	0.67	0.633	0.689	0.628	0.558	0.467	0.412	0.48	0.3	0.4	0.766	0.71	0.801	0.606	0.654	0.939	0.924	0.981	0.783	0.805
NCI-H1651	0.881	0.808	0.78	0.691	0.781	0.898	0.523	0.536	0.38	0.253	0.331	0.399	0.464	0.47	0.377	0.934	0.921	0.959	0.861	0.939
NCI-H1993	–	0.493	0.576	0.506	0.451	0.626	0.603	0.639	0.562	0.514	–	0.884	0.687	0.453	0.48	–	0.968	0.673	0.809	0.662
SW 900	0.826	0.761	–	0.483	0.605	0.737	0.401	0.409	0.307	0.258	0.439	0.529	–	0.265	0.411	0.722	0.768	0.182	0.473	0.541
NCI-H1975	0.341	0.295	0.171	0.255	0.21	0.695	0.526	0.228	0.216	0.124	0.657	0.721	0.562	0.57	0.378	0.95	0.885	0.774	0.816	0.598
NCI-H727	0.415	0.374	0.379	0.365	0.346	0.66	0.48	0.45	0.429	0.325	0.519	0.616	0.652	0.476	0.385	0.784	0.933	0.687	0.551	0.347
LC-2-ad	0.998	0.856	0.881	0.755	0.537	0.522	0.45	0.319	0.383	0.369	0.913	0.844	0.798	0.458	0.468	1.01	0.823	0.662	0.603	0.66
